Laboratory results taken from article PMC6688371, “Effect of the inhaled PDE4 inhibitor CHF6001 on biomarkers of inflammation in COPD” (Respiratory Research, 2019).
Where two headings read alike, the source gives them in different places. Marks after values point to notes of the source that are not given here.

Experiments:
[1] = system: patients with COPD; assay: Forced oscillometry; format: in vivo, human; settings: for Difference in inspiratory resistance (5-19Hz), adjusted mean difference vs placebo (95% CI) / Expiratory reactance (5 Hz), adjusted mean difference vs placebo (95% CI) / Expiratory resistance (5 Hz), adjusted mean difference vs placebo (95% CI) / Expiratory resistance (19 Hz), adjusted mean difference vs placebo (95% CI) / Inspiratory reactance (5 Hz), adjusted mean difference vs placebo (95% CI) / Inspiratory resistance (5 Hz), adjusted mean difference vs placebo (95% CI) / Inspiratory resistance (19 Hz), adjusted mean difference vs placebo (95% CI) / Percentage flow limited breaths, adjusted mean difference vs placebo (95% CI) / Tidal expiratory flow limitation, adjusted mean difference vs placebo (95% CI) / Total reactance (5 Hz), adjusted mean difference vs placebo (95% CI) / Total resistance (5 Hz), adjusted mean difference vs placebo (95% CI) / Total resistance (19 Hz), adjusted mean difference vs placebo (95% CI): change from baseline to Day 32
Description: (§1) Induced sputum was collected pre-dose on Day 1 of each treatment period (for the first treatment period, the sample could be collected up to 10 days prior to Day 1), and 2 h post-dose on Days 20, 26 and 32 (see the Additional file 1 for further detail on sputum and blood analysis methods). Blood samples were taken pre-dose on Day 1, and pre-dose and at 30 min, and 1, 1.5, 2, 3, 4, 6, 8 and 12 h post-dose on Day 32. Other pre-dose assessments on Days 1 and 32 were spirometry (forced expiratory volume in 1 s [FEV1] and forced vital capacity [FVC]), forced oscillometry, and COPD Assessment Test (CAT), with Baseline Dyspnea Index recorded on Day 1 and Transition Dyspnea Index (TDI) on Day 32. Central and peripheral airways mechanics were assessed using forced oscillometry, with the following values determined: inspiratory and expiratory resistance (at 5 and 19 Hz), inspiratory and expiratory reactance, tidal expiratory flow limitation and the percentage of flow limited breaths.
The mean changes from baseline to Day 32 for lung function, CAT and TDI were analysed using similar methodology to sputum biomarkers, but were not log-transformed. […] The sputum concentration of CHF6001 was also evaluated at 2 h post-dose, using the mean of all values measured on Days 20, 26 and 32. Pharmacokinetic variables were summarised using geometric means and coefficients of variation, except for Tmax,ss, which is presented as median (range).

[2] = Plasma pharmacokinetics at steady state (Day 32); format: in vivo, human; settings: for Tmax,ss / CL/F / Cmax / AUC(0-t): plasma on Day 32; for Tmax,ss: median (range); for CL/F / Cmax / AUC(0-t): both sexes, human, inhaled or intranasal, geometric mean (%CV); for AUC(0-t): read-out: AUC0–12,ss
Description: as §1
The mean changes from baseline to Day 32 for lung function, CAT and TDI were analysed using similar methodology to sputum biomarkers, but were not log-transformed. […] The sputum concentration of CHF6001 was also evaluated at 2 h post-dose, using the mean of all values measured on Days 20, 26 and 32. Pharmacokinetic variables were summarised using geometric means and coefficients of variation, except for Tmax,ss, which is presented as median (range). […]
Validation procedures again followed those outlined for the analysis of biomarkers above. All […]
concentrations of biomarkers in human serum or plasma from regulatory studies.
Blood for the pharmacokinetic analysis was collected pre-dose and at 30 min, and 1, 1.5, 2, 3, 4, 6, 8 and 12 h post-dose on Day 32 of each treatment period. Samples were centrifuged at 2000 g for 15 min at 4C, with the resulting plasma shipped to the central laboratory at –60 […]
to –90C. The plasma concentration of CHF6001 was evaluated using a LC-MS/MS method following solid phase extraction. Validation procedures again followed those outlined for the analysis of biomarkers above. The bioanalytical method wa s found to be linear over the calibration range of 10 to 20,000 pg/mL. The precision and accuracy of the method was found to be within the target limits of within 20% at the lower limit of quantification 10 pg/mL and within 15% at all other concentrations.
The recovery of CHF6001 from human plasma was consistent across the analytical range , with no significant matrix effects. […]
for up to 24 h at the sample processing temperature (nominally +20C), a fter storage for 184 days in a freezer (nominally –80C) and after four freeze-thaw cycles at nominally – 80C / +20C. Therefore the method was considered to be suitable for measuring concentrations of CHF6001 in human plasma samples from regulatory studies.
The study was approved by two centralised ethics committees on behalf of the sites:
• UK: Health Research Authority, North West, Greater Manchester South Research Ethics Committee, Manchester (approval reference 16/NW/0553).
• Germany: Ethics Committee of Hesse Medical Association, Frankfurt am Main (approval reference FF 98/2016).
Patients had to meet all the following inclusion criteria to be eligible for enrolment into the […]
1. Written informed consent obtained prior to any study-related procedures;
2. Male or female aged ≥40 years;
3. A female was eligible to enter the study if they were of non-childbearing potential, i.e. physiologically incapable of becoming pregnant (e.g. postmenopausal women defined as being amenorrhoeic for ≥12 consecutive months without an alternative medical cause. If indicated, as per Investigator’s request, post -menopausal status

[3] = Stability of CHF6001 in human sputum samples (bioanalytical validation); format: in vitro ADME
Description: Effect of CHF6001 on inflammatory biomarkers – Additional file 1
Approximately 80 to 100 cells were to be counted per square , with the number of live leukocytes, dead leukocytes and squamous cells counted.
To determine differential cell counts, the sputum cell suspension was adjusted with Dulbecco's Phosphate -Buffered Saline to give 0.5x10^6 cells/mL. A total of 75 µL was used to prepare a cytoslide, which was then centrifuged at 450 rpm for 6 min and allowed to air dry for a minimum of 30 min before being fixed with methanol for 10 min. Four slides were prepared for each sample.
Only one of the sputum samples induced at 2 h post-dose on Days 20, 26 or 32 was used to evaluate CHF6001 concentration, with the evaluation performed only if a minimum of 300 mg of residual sputum remained. Approximately 30 mg of sputum plug was transferred to a polypropylene cryotube, and was shipped in an upright position at –80C to a central laboratory for analysis. The concentration of CHF6001 was evaluated using a LC-MS/MS method following solid phase extraction. Validation procedures were the same as those listed above for biomarkers. […]
over the calibration range of 30 to 20,000 ng/mL. The precision and accuracy of the method […]
30 ng/mL and within 15% at all other concentrations. No significant matrix effects were […]
temperature (nominally +22C), after storage for 93 days in a freezer set at –80C and after four freeze-thaw cycles at nominally –80C / +22C. The method was considered to be suitable for measuring concentrations of CHF6001 in human sputum samples from […]
Analysis of biomarkers and CHF6001 concentration in blood
The levels of inflammatory biomarkers were evaluated from blood collected at 2 h post-dose

CS(=O)(=O)Nc1ccc(C(=O)O[C@@H](Cc2c(Cl)c[n+]([O-])cc2Cl)c2ccc(OC(F)F)c(OCC3CC3)c2)cc1OCC1CC1 [CHF6001]
Difference in inspiratory resistance (5-19Hz), adjusted mean difference vs placebo (95% CI) ([1]; 800 µg BID): –0.09 (–0.32 to 0.13) cmH2O/(L/s)
Expiratory reactance (5 Hz), adjusted mean difference vs placebo (95% CI) ([1]; 800 µg BID): 0.14 (–0.49 to 0.77) cmH2O/(L/s)
Expiratory resistance (5 Hz), adjusted mean difference vs placebo (95% CI) ([1]; 800 µg BID): –0.15 (–0.45 to 0.15) cmH2O/(L/s)
Expiratory resistance (19 Hz), adjusted mean difference vs placebo (95% CI) ([1]; 800 µg BID): –0.04 (–0.23 to 0.15) cmH2O/(L/s)
Inspiratory reactance (5 Hz), adjusted mean difference vs placebo (95% CI) ([1]; 800 µg BID): 0.18 (0.00 to 0.36) cmH2O/(L/s)
Inspiratory resistance (5 Hz), adjusted mean difference vs placebo (95% CI) ([1]; 800 µg BID): –0.07 (–0.33 to 0.20) cmH2O/(L/s)
Inspiratory resistance (19 Hz), adjusted mean difference vs placebo (95% CI) ([1]; 800 µg BID): 0.06 (–0.12 to 0.24) cmH2O/(L/s)
Percentage flow limited breaths, adjusted mean difference vs placebo (95% CI) ([1]; 800 µg BID): 0.95 (–8.51 to 10.41)
Tidal expiratory flow limitation, adjusted mean difference vs placebo (95% CI) ([1]; 800 µg BID): 0.03 (–0.56 to 0.63)
Total reactance (5 Hz), adjusted mean difference vs placebo (95% CI) ([1]; 800 µg BID): 0.13 (–0.30 to 0.56) cmH2O/(L/s)
Total resistance (5 Hz), adjusted mean difference vs placebo (95% CI) ([1]; 800 µg BID): –0.13 (–0.39 to 0.13) cmH2O/(L/s)
Total resistance (19 Hz), adjusted mean difference vs placebo (95% CI) ([1]; 800 µg BID): –0.00 (–0.18 to 0.17) cmH2O/(L/s)
Difference in inspiratory resistance (5-19Hz), adjusted mean difference vs placebo (95% CI) ([1]; 1600 µg BID): 0.05 (–0.18 to 0.27) cmH2O/(L/s)
Expiratory reactance (5 Hz), adjusted mean difference vs placebo (95% CI) ([1]; 1600 µg BID): 0.082 (–0.55 to 0.72) cmH2O/(L/s)
Expiratory resistance (5 Hz), adjusted mean difference vs placebo (95% CI) ([1]; 1600 µg BID): 0.21 (–0.09 to 0.52) cmH2O/(L/s)
Expiratory resistance (19 Hz), adjusted mean difference vs placebo (95% CI) ([1]; 1600 µg BID): 0.14 (–0.05 to 0.33) cmH2O/(L/s)
Inspiratory reactance (5 Hz), adjusted mean difference vs placebo (95% CI) ([1]; 1600 µg BID): 0.14 (–0.04 to 0.32) cmH2O/(L/s)
Inspiratory resistance (5 Hz), adjusted mean difference vs placebo (95% CI) ([1]; 1600 µg BID): 0.23 (–0.03 to 0.50) cmH2O/(L/s)
Inspiratory resistance (19 Hz), adjusted mean difference vs placebo (95% CI) ([1]; 1600 µg BID): 0.17 (–0.01 to 0.35) cmH2O/(L/s)
Percentage flow limited breaths, adjusted mean difference vs placebo (95% CI) ([1]; 1600 µg BID): –2.06 (–11.66 to 7.53)
Tidal expiratory flow limitation, adjusted mean difference vs placebo (95% CI) ([1]; 1600 µg BID): 0.05 (–0.55 to 0.65)
Total reactance (5 Hz), adjusted mean difference vs placebo (95% CI) ([1]; 1600 µg BID): 0.03 (–0.41 to 0.47) cmH2O/(L/s)
Total resistance (5 Hz), adjusted mean difference vs placebo (95% CI) ([1]; 1600 µg BID): 0.22 (–0.04 to 0.49) cmH2O/(L/s)
Total resistance (19 Hz), adjusted mean difference vs placebo (95% CI) ([1]; 1600 µg BID): 0.15 (–0.03 to 0.32) cmH2O/(L/s)
Oscillometry parameters vs placebo ([1]; either dose (800 or 1600 μg BID)): no consistent treatment–placebo differences
Tmax,ss ([2]; 800 μg BID inhaled): 2.00 (0.50; 4.08)^a h
Tmax,ss ([2]; 1600 μg BID inhaled): 2.00 (0.48; 4.05)^b h
Systemic exposure in relation to dose ([2]; Day 32, 800 vs 1600 μg BID): broadly proportional to dose
CL/F ([2]; 800 ug, 800 μg BID inhaled): 603 mL/min
Cmax ([2]; 800 ug, 800 μg BID inhaled): 2.44 ng/mL
AUC(0-t) ([2]; 800 ug, 800 μg BID inhaled): 22.1 ng·h/mL
CL/F ([2]; 1600 ug, 1600 μg BID inhaled): 653 mL/min
Cmax ([2]; 1600 ug, 1600 μg BID inhaled): 4.5 ng/mL
AUC(0-t) ([2]; 1600 ug, 1600 μg BID inhaled): 40.8 ng·h/mL
Storage time found stable in sputum ([3]; freezer set at –80C): 93 days
Freeze-thaw cycles found stable in sputum ([3]; nominally –80C / +22C): four
Time found stable in sputum ([3]; sample processing temperature (nominally +22C)): up to 24 h
